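Where inhibition never reached the appropriate level, the endpoint shown equals the highest concentration tested. Otherwise, values were interpolated linearly from a five-concentration, 48-hour dose response in 96-well plates. The concentration for 50% growth inhibition is given as GI50.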 Calls of active or inactive are those of the source. Cut-off read from the data, not from the text of the source: active = GI50 up to about 1.1 µM and inactive = higher.
Columns and labels:
Assay in all cases: DTP human tumour cell line panel, 48 h
SK-MEL-2 = tested on: SK-MEL-2
NCI-H23 = tested on: NCI-H23
SF-539 = tested on: SF-539
LOX IMVI = tested on: LOX IMVI
SF-268 = tested on: SF-268
CAKI-1 = tested on: CAKI-1
U-251 = tested on: U-251
OVCAR-8 = tested on: OVCAR-8
NCI-H460 = tested on: NCI-H460
SN12C = tested on: SN12C
HCC 2998 = tested on: HCC 2998
786-0 = tested on: 786-0
EKVX = tested on: EKVX
Malme-3M = tested on: Malme-3M
SK-MEL-28 = tested on: SK-MEL-28
LXFL 529 = tested on: LXFL 529

Measured: GI50

O=C(O)[C@@H](NS(=O)(=O)c1ccc([N+](=O)[O-])cc1)c1ccccc1
inactive: SK-MEL-2 > 100 µM | NCI-H23 > 100 µM | SF-539 > 100 µM | LOX IMVI > 100 µM | SF-268 > 100 µM | CAKI-1 > 100 µM | U-251 > 100 µM | OVCAR-8 > 100 µM | NCI-H460 > 100 µM | SN12C > 100 µM | HCC 2998 > 100 µM | 786-0 > 100 µM | EKVX > 100 µM | Malme-3M > 100 µM | SK-MEL-28 > 100 µM | LXFL 529 > 100 µM

O=C(C(=O)c1ccc(Cc2ccc(C(=O)C(=O)c3ccccc3)cc2)cc1)c1ccccc1
inactive: SK-MEL-2 > 100 µM | NCI-H23 > 100 µM | SF-539 > 100 µM | LOX IMVI > 100 µM | SF-268 > 100 µM | CAKI-1 > 100 µM | U-251 > 100 µM | OVCAR-8 > 100 µM | NCI-H460 > 100 µM | SN12C > 100 µM | HCC 2998 > 100 µM | 786-0 > 100 µM | EKVX > 100 µM | Malme-3M > 100 µM | SK-MEL-28 > 100 µM | LXFL 529 > 100 µM

Cc1nc(Nc2ccccc2)sc1C(=O)NNc1ccc([N+](=O)[O-])cc1[N+](=O)[O-]
inactive: SK-MEL-2 38.5 µM | NCI-H23 17.5 µM | SF-539 32.7 µM | LOX IMVI 21.4 µM | SF-268 75.5 µM | CAKI-1 31.5 µM | U-251 38.6 µM | OVCAR-8 39.2 µM | NCI-H460 31.9 µM | SN12C 49 µM | HCC 2998 43.7 µM | 786-0 27.9 µM | EKVX 18.9 µM | Malme-3M 43.9 µM | SK-MEL-28 > 100 µM | LXFL 529 28.7 µM

O=C1Nc2ccccc2C12CCCC2
inactive: SK-MEL-2 > 100 µM | NCI-H23 > 100 µM | SF-539 4.24 µM | SF-268 > 100 µM | CAKI-1 > 100 µM | U-251 > 100 µM | OVCAR-8 > 100 µM | NCI-H460 > 100 µM | SN12C > 100 µM | HCC 2998 > 100 µM | 786-0 > 100 µM | EKVX 72.3 µM | Malme-3M > 100 µM | SK-MEL-28 > 100 µM | LXFL 529 > 100 µM

CC[P+](C)(C)CC
inactive: SK-MEL-2 82.8 µM | NCI-H23 > 100 µM | SF-539 > 100 µM | LOX IMVI > 100 µM | SF-268 > 100 µM | U-251 > 100 µM | OVCAR-8 > 100 µM | NCI-H460 > 100 µM | SN12C > 100 µM | HCC 2998 > 100 µM | 786-0 > 100 µM | EKVX > 100 µM | Malme-3M > 100 µM | SK-MEL-28 > 100 µM | LXFL 529 > 100 µM

CC(C)=C1CCC(CN2CCCC2)C1=O (configuration not stated)
inactive: SK-MEL-2 29.6 µM | NCI-H23 > 100 µM | SF-539 53.7 µM | LOX IMVI > 100 µM | SF-268 33.8 µM | CAKI-1 13.7 µM | OVCAR-8 > 100 µM | NCI-H460 58.7 µM | SN12C 17.6 µM | HCC 2998 20.3 µM | 786-0 16.9 µM | EKVX > 100 µM | Malme-3M 21.4 µM | SK-MEL-28 26.7 µM | LXFL 529 18 µM

Cc1cn(C2CC(O)C(CO)O2)c(=O)n2nnnc12 (configuration not stated)
inactive: SK-MEL-2 > 100 µM | NCI-H23 > 100 µM | SF-539 > 100 µM | LOX IMVI > 100 µM | SF-268 > 100 µM | U-251 > 100 µM | OVCAR-8 > 100 µM | NCI-H460 > 100 µM | HCC 2998 > 100 µM | 786-0 > 100 µM | EKVX > 100 µM | Malme-3M > 100 µM | SK-MEL-28 > 100 µM | LXFL 529 > 100 µM

COc1c(C)c2c(c(C)c1Cl)Oc1c(C=O)c(O)c(Cl)c(C)c1C(=O)O2
inactive: NCI-H23 21.1 µM | SF-539 18.5 µM | LOX IMVI 25.9 µM | SF-268 27.8 µM | CAKI-1 40.7 µM | U-251 20.3 µM | OVCAR-8 36.7 µM | NCI-H460 32.3 µM | SN12C 33.3 µM | HCC 2998 28.1 µM | 786-0 31 µM | EKVX 17.9 µM | Malme-3M 23.2 µM | LXFL 529 28.1 µM

CN1CCN2c3ccccc3CC(C#N)(C#N)C2C1 (configuration not stated)
inactive: SK-MEL-2 > 100 µM | NCI-H23 > 100 µM | SF-539 > 100 µM | LOX IMVI > 100 µM | SF-268 > 100 µM | CAKI-1 > 100 µM | U-251 > 100 µM | OVCAR-8 > 100 µM | NCI-H460 > 100 µM | SN12C > 100 µM | HCC 2998 > 100 µM | 786-0 > 100 µM | EKVX > 100 µM | Malme-3M > 100 µM | SK-MEL-28 > 100 µM | LXFL 529 > 100 µM

CC(=O)O[C@H]1CC[C@@]2(C)C(CC[C@]3(C)C2CC[C@]2(C)Oc4c(C)cc(O)cc4C[C@@H]23)C1(C)C (some centres not stated)
inactive: SK-MEL-2 7.52 µM | NCI-H23 6.56 µM | LOX IMVI 8.75 µM | SF-268 4.61 µM | CAKI-1 8.99 µM | U-251 2.71 µM | OVCAR-8 8.93 µM | NCI-H460 4.11 µM | SN12C > 10 µM | HCC 2998 7.6 µM | 786-0 1.99 µM | EKVX 19.5 µM | Malme-3M 10.1 µM | SK-MEL-28 8.59 µM | LXFL 529 3.65 µM

O=C(O)/C(=C/c1ccccc1[N+](=O)[O-])c1cccs1
inactive: SK-MEL-2 > 100 µM | NCI-H23 > 100 µM | SF-539 > 100 µM | LOX IMVI > 100 µM | SF-268 > 100 µM | CAKI-1 > 100 µM | U-251 > 100 µM | OVCAR-8 > 100 µM | NCI-H460 > 100 µM | SN12C > 100 µM | HCC 2998 > 100 µM | 786-0 > 100 µM | EKVX > 100 µM | SK-MEL-28 > 100 µM | LXFL 529 > 100 µM

CN(C)CCC(=O)N1CCc2c([nH]c3ccccc23)C1c1cccnc1 (configuration not stated)
inactive: NCI-H23 > 100 µM | SF-539 > 100 µM | LOX IMVI > 100 µM | SF-268 > 100 µM | CAKI-1 > 100 µM | U-251 > 100 µM | OVCAR-8 > 100 µM | NCI-H460 > 100 µM | SN12C > 100 µM | HCC 2998 > 100 µM | 786-0 > 100 µM | EKVX > 100 µM | SK-MEL-28 54.2 µM | LXFL 529 34.9 µM

CC12CC(Sc3ccccc3N1)c1ccccc1O2 (configuration not stated)
inactive: SK-MEL-2 12.8 µM | NCI-H23 15.7 µM | SF-539 17.5 µM | LOX IMVI 13.7 µM | SF-268 16.1 µM | CAKI-1 19.2 µM | U-251 13.2 µM | OVCAR-8 17.9 µM | NCI-H460 16.6 µM | SN12C 18.8 µM | HCC 2998 17.1 µM | 786-0 17.7 µM | EKVX 18.6 µM | Malme-3M 16.1 µM | SK-MEL-28 16.7 µM | LXFL 529 15.2 µM
